Source: patent US6737383B1, “Herbicidal oxadiazolidines” (priority 1999, dated 2004)

How the values were obtained:
sugar beet = assay: Test B pre/postemergence sugar beet; assay type: in vivo, Beta vulgaris
Outline: (§1)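 Response is a visual 0-to-10 score relative to untreated plants, where 0 means no effect and 10 means complete control, taken twelve to sixteen days after application. Treatments went onto soil at planting and onto foliage of 1- to 4-leaf plants, using a surfactant-containing non-phytotoxic solvent.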

crabgrass = assay: Test B pre/postemergence crabgrass; assay type: in vivo, Digitaria sanguinalis
Outline: as §1

surinam grass = assay: Test B pre/postemergence surinam grass; assay type: in vivo, Brachiaria decumbens
Outline: as §1

rape = assay: Test B pre/postemergence rape; assay type: in vivo, Brassica napus
Outline: as §1

velvetleaf = assay: Test B pre/postemergence velvetleaf; assay type: in vivo, Abutilon theophrasti
Outline: as §1

wheat = assay: Test B pre/postemergence wheat; assay type: in vivo, Triticum aestivum
Outline: as §1

duck salad = assay: Test B flood test duck salad; assay type: in vivo, Heteranthera limosa
Outline: (§2)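 Each value is a visual injury score relative to controls, with 10 meaning complete control and 0 no effect. Evaluation took place twelve to sixteen days after the 2-leaf-stage plants were treated and kept in the greenhouse.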

wild oat = assay: Test B pre/postemergence wild oat; assay type: in vivo, Avena fatua
Outline: as §1

corn = assay: Test B pre/postemergence corn; assay type: in vivo, Zea mays
Outline: as §1

smallflower flatsedge = assay: Test B flood test smallflower flatsedge; assay type: in vivo, Cyperus difformis
Outline: as §2

blackgrass = assay: Test B pre/postemergence blackgrass; assay type: in vivo, Alopecurus myosuroides
Outline: as §1

rice = assay: Test B flood test rice; assay type: in vivo, Oryza sativa
Outline: as §2

purple nutsedge = assay: Test B pre/postemergence purple nutsedge; assay type: in vivo, Cyperus rotundus
Outline: as §1

soybean = assay: Test B pre/postemergence soybean; assay type: in vivo, Glycine max
Outline: as §1

pigweed = assay: Test B pre/postemergence pigweed; assay type: in vivo, Amaranthus retroflexus
Outline: as §1

bedstraw = assay: Test B pre/postemergence bedstraw; assay type: in vivo, Galium aparine; settings: Postemergence
Outline: as §1

[1] = Postemergence, Rate 62 g/ha, scale 0 to 10, 0 is no effect, 10 is complete control
[2] = Postemergence, Rate 125 g/ha, scale of 0 to 10 where 0 is no effect and 10 is complete control
[3] = Postemergence, Rate 250 g/ha, scale of 0 to 10, 0 is no effect, 10 is complete control
[4] = Postemergence, Rate 500 g/ha, scale of 0 to 10 where 0 is no effect and 10 is complete control
[5] = Preemergence, Rate 62 g/ha, scale 0 to 10 (0 no effect, 10 complete control)
[6] = Preemergence, Rate 125 g/ha, scale of 0 to 10 where 0 is no effect and 10 is complete control
[7] = Preemergence, Rate 500 g/ha, scale of 0 to 10 where 0 is no effect and 10 is complete control
[8] = Rate 62 g/ha, flood test species, Pre-emergence, visual evaluation after twelve to sixteen days
[9] = Rate 125 g/ha, under heading Pre-emergence, flood test species, visual evaluation after twelve to sixteen days
[10] = Rate 250 g/ha, Pre-emergence (flood test species), scale 0 to 10, 0 is no effect, 10 is complete control
[11] = Rate 500 g/ha, Pre-emergence section of Table B, 0 to 10 scale (0 no effect, 10 complete control)

CCC(C)n1c(=O)on(C(=O)N(c2ccc(F)cc2)C(C)C)c1=O (stereo not drawn) [Compound 613]
Plant response rating, Sugarbeets (sugar beet; [1]): 0 | Plant response rating, Sugarbeets (sugar beet; [2]): 0 | Sugarbeets plant response rating (sugar beet; [3]): 0 | Plant response rating, Sugarbeets (sugar beet; [4]): 0 | Sugarbeets plant response rating (sugar beet; [5]): 3 | Sugarbeets plant response rating (sugar beet; [6]): 5 | Plant response rating, Sugarbeets (sugar beet; [7]): 10 | Plant response rating, Crabgrass (crabgrass; [1]): 8 | Plant response rating, Crabgrass (crabgrass; [2]): 9 | Crabgrass plant response rating (crabgrass; [3]): 9 | Plant response rating, Crabgrass (crabgrass; [4]): 9 | Crabgrass plant response rating (crabgrass; [5]): 9 | Crabgrass plant response rating (crabgrass; [6]): 10 | Plant response rating, Crabgrass (crabgrass; [7]): 10 | Plant response rating, B. signalgrass (surinam grass; [1]): 1 | Plant response rating, B. signalgrass (surinam grass; [2]): 3 | B. signalgrass plant response rating (surinam grass; [3]): 6 | Plant response rating, B. signalgrass (surinam grass; [4]): 8 | B. signalgrass plant response rating (surinam grass; [5]): 7 | B. signalgrass plant response rating (surinam grass; [6]): 8 | B. signalgrass plant response rating (0 to 10 scale, 0 is no effect, 10 is complete control) (surinam grass; Preemergence, Rate 250 g/ha): 9 | B. signalgrass plant response rating (surinam grass; [7]): 9 | Plant response rating, Rape (rape; [1]): 0 | Plant response rating, Rape (rape; [2]): 0 | Rape plant response rating (rape; [3]): 3 | Plant response rating, Rape (rape; [4]): 7 | Rape plant response rating (rape; [5]): 7 | Rape plant response rating (rape; [6]): 9 | Plant response rating, Rape (rape; [7]): 10 | Plant response rating, Velvetleaf (velvetleaf; [1]): 0 | Plant response rating, Velvetleaf (velvetleaf; [2]): 4 | Velvetleaf plant response rating (velvetleaf; [3]): 5 | Plant response rating, Velvetleaf (velvetleaf; [4]): 8 | Velvetleaf plant response rating (velvetleaf; [5]): 7 | Velvetleaf plant response rating (velvetleaf; [6]): 7 | Plant response rating, Velvetleaf (velvetleaf; [7]): 8 | Plant response rating, Wheat (wheat; [1]): 0 | Plant response rating, Wheat (wheat; [2]): 0 | Wheat plant response rating (wheat; [3]): 2 | Plant response rating, Wheat (wheat; [4]): 6 | Wheat plant response rating (wheat; [5]): 0 | Wheat plant response rating (wheat; [6]): 3 | Plant response rating, Wheat (wheat; [7]): 6 | Plant response rating, Ducksalad (0 to 10 scale, 0 is no effect, 10 is complete control) (duck salad; [8]): 0 | Ducksalad plant response rating (0 to 10 scale, 0 is no effect, 10 is complete control) (duck salad; [9]): 0 | Ducksalad plant response rating (duck salad; [10]): 0 | Ducksalad plant response rating (duck salad; [11]): 0 | Plant response rating, Wild oats (wild oat; [1]): 1 | Plant response rating, Wild oats (wild oat; [2]): 7 | Wild oats plant response rating (wild oat; [3]): 9 | Plant response rating, Wild oats (wild oat; [4]): 9 | Wild oats plant response rating (wild oat; [5]): 7 | Wild oats plant response rating (wild oat; [6]): 9 | Plant response rating, Wild oats (wild oat; [7]): 10 | Plant response rating, Corn (corn; [1]): 0 | Plant response rating, Corn (corn; [2]): 0 | Corn plant response rating (corn; [3]): 0 | Plant response rating, Corn (corn; [4]): 0 | Corn plant response rating (corn; [5]): 2 | Corn plant response rating (corn; [6]): 3 | Corn plant response rating (0 to 10 scale) (corn; Preemergence, Rate 250 g/ha): 9 | Plant response rating, Corn (corn; [7]): 9 | Plant response rating, S. Flatsedge (0 to 10 scale, 0 is no effect, 10 is complete control) (smallflower flatsedge; [8]): 0 | S. Flatsedge plant response rating (0 to 10 scale, 0 is no effect, 10 is complete control) (smallflower flatsedge; [9]): 0 | S. Flatsedge plant response rating (smallflower flatsedge; [10]): 0 | S. Flatsedge plant response rating (smallflower flatsedge; [11]): 0 | Plant response rating, Blackgrass (blackgrass; [1]): 8 | Plant response rating, Blackgrass (blackgrass; [2]): 9 | Blackgrass plant response rating (blackgrass; [3]): 9 | Plant response rating, Blackgrass (blackgrass; [4]): 9 | Blackgrass plant response rating (blackgrass; [5]): 8 | Blackgrass plant response rating (blackgrass; [6]): 8 | Blackgrass plant response rating (0 to 10 scale) (blackgrass; Preemergence, Rate 250 g/ha): 10 | Blackgrass plant response rating (blackgrass; [7]): 10 | Plant response rating, Rice (0 to 10 scale, 0 is no effect, 10 is complete control) (rice; [8]): 0 | Rice plant response rating (0 to 10 scale, 0 is no effect, 10 is complete control) (rice; [9]): 0 | Rice plant response rating (rice; [10]): 0 | Rice plant response rating (rice; [11]): 0 | Plant response rating, Nutsedge (purple nutsedge; [1]): 0 | Plant response rating, Nutsedge (purple nutsedge; [2]): 2 | Nutsedge plant response rating (purple nutsedge; [3]): 2 | Plant response rating, Nutsedge (purple nutsedge; [4]): 4 | Nutsedge plant response rating (purple nutsedge; [5]): 0 | Nutsedge plant response rating (purple nutsedge; [6]): 0 | Plant response rating, Nutsedge (purple nutsedge; [7]): 2 | Plant response rating, Soybean (soybean; [1]): 4 | Plant response rating, Soybean (soybean; [2]): 5 | Soybean plant response rating (soybean; [3]): 6 | Plant response rating, Soybean (soybean; [4]): 8 | Soybean plant response rating (soybean; [5]): 0 | Soybean plant response rating (soybean; [6]): 0 | Plant response rating, Soybean (soybean; [7]): 2 | Plant response rating, Redroot pigweed (pigweed; [1]): 1 | Plant response rating, Redroot pigweed (pigweed; [2]): 2 | Redroot pigweed plant response rating (pigweed; [3]): 7 | Plant response rating, Redroot pigweed (pigweed; [4]): 8 | Redroot pigweed plant response rating (pigweed; [5]): 10 | Redroot pigweed plant response rating (pigweed; [6]): 10 | Plant response rating, Redroot pigweed (pigweed; [7]): 10 | Plant response rating, Bedstraw (bedstraw; Rate 62 g/ha, scale 0 to 10, 0 is no effect, 10 is complete control): 8 | Bedstraw plant response rating (bedstraw; Rate 250 g/ha, scale of 0 to 10, 0 is no effect, 10 is complete control): 8 | Plant response rating, Bedstraw (bedstraw; Rate 500 g/ha, scale of 0 to 10 where 0 is no effect and 10 is complete control): 9
